According to patent US12544365B2, “Pharmaceutical combination of an EP4 antagonist and immune checkpoint inhibitors for the treatment of tumours” (ROTTAPHARM BIOTECH S.R.L., priority 2019, dated 2026):

Legend:
CT26 cancer cell tumours = assay: CT26 syngeneic model of mouse colorectal cancer in Balb/c mice; assay type: in vivo; conditions: compounds 30 mg/kg oral daily day 7-23; anti PD-1 i.p. 20 mg/kg day 8, 10 mg/kg days 13, 19, 22
Description: Male Balb/c mice 4-6 weeks old were housed five per cage in a temperature and humidity controlled room with a 12h/12h light/dark cycle. Throughout the experiment the animals had free access to food and water. The Balb/c mice were randomly divided into 6 groups (n=15 in each group): vehicle, Compound 1, Compound 2, anti PD-1, Compound 1+anti PD-1, Compound 2+anti PD-1 group.
CT26 cells were purchased from ATCC and cultured in Dulbecco's Modified Eagle's Medium (DMEM; ThermoFisher Scientific) supplemented with 10% fetal bovine serum (FBS; Sigma Aldrich) at 37° C. in an incubator with 5% CO2. Cells were sub-cultured twice a week until the number of cells needed for inoculation was obtained.
On the day of transplantation (day 0) logarithmic growing phase cells were harvested, diluted in PBS and 10^6 cells in 0.2 ml of PBS were subcutaneously inoculated into the lateral abdominal region of each mouse using a 26G syringe.
On day 7 after inoculation the mice were randomized into the 6 treatment groups each of 15 animals receiving respectively vehicle, Compound 1, Compound 2, anti PD-1 and the combination therapies. […]
Tumour sizes (mm^3) were evaluated twice a week by using a digital caliper. The tumour volumes were calculated measuring the tumour lengths along the major and minor axis and using the formula: Volume=[[…]]/2.

[1] = test system: Th-17 cells differentiation of human CD4+ naïve T cells; assay: Ex vivo human Th-17 cells differentiation (flow cytometry); assay type: cell-based; conditions: 0.03 μM PGE2, 48 hours
Description: Peripheral blood mononuclear cells (PBMC) were isolated from healthy volunteers using density gradient centrifugation and CD4+naïve T cells were enriched from PBMCs using human naïve CD4+ T cell isolation kit (Miltenyi Biotech). Isolated CD4+ T cells were maintained in RPMI medium and differentiated toward Th-17 cells by stimulation with IL-12 and IL-2, both 5 ng/ml in combination with 1.5 ng/ml of antibodies anti CD3 and anti CD28 and 0.03 μM PGE2+Compound 1 at concentration of 0.01-0.03-0.1-0.3 μM for 48 hours.
At the end of incubation time cells were stained with fluorescence-conjugated antibodies specific for CD4, CCR6, CD45, CD25 and IL-17 (all from BD Bioscience). Finally, the number of Th-17 cells was determined by flow cytometry and the events were measured by Fluorescence Activated Cell Sorter (FACS; BD Bioscience) and analyzed with dedicated software.

[2] = test system: PGE2 effect on TNF-α release in rat whole blood culture; assay: In vitro TNF-α release induced by LPS and modulated by PGE2, rat whole blood culture; assay type: cell-based; conditions: 0.1 μg/ml LPS + fixed PGE2 concentration giving about 80% inhibition, 4 hours, read-out: IC50, reversal of PGE2 effect on TNF-α release
Description: Male Wistar Han rats (250-300 g b.w., Charles River, Italy) were housed six per cage in a temperature-controlled room, set to maintain temperature within the range of 20° C. #2° C. and relative humidity within the range of 55%±10 and with a 12-h/12-h light/dark cycle. Throughout the study animals had free access to standard laboratory chow (Teklad rodent diet 2018, Harlan Laboratories, S. Pietro al Natisone, UD, Italy) and drinking water. Care and handling of the animals were in accordance with the guidelines of the Local Government and the regulations of the European Community. Authorization for experimental procedures was granted by the Italian Ministry of Health. The day of the experiments animals were anaesthetized with 2.5-3% isoflurane in O2 inside an induction chamber and blood was drawn from the abdominal aorta. Whole blood samples were collected in tubes containing 0.1-0.2U/ml heparin. […]
In samples representing basal release of the cytokine, LPS was substituted by the same volume of sterile PBS. […] The levels of TNF-α release in rat whole blood culture were evaluated using the Rat TNFalpha ELISA kit (Diaclone, France). Compared to the reference standard curve, TNF-α levels in samples were expressed as concentration (pg/ml).

PK experiments in rat = conditions: in vivo, po

Compound: O=C([O-])c1ccc(C2(NC(=O)[C@H]3CC4(CCN3Cc3ccc(C(F)(F)F)cc3)CC4)CC2)cc1.[Na+] [Compound 1, sodium (R)-4-(1-(6-(4-(trifluoromethyl)benzyl)-6-azaspiro[2.5]octane-5-carboxamido)cyclopropyl)benzoate]
- effect on tumour growth (tumour volume) (CT26 cancer cell tumours): mild inhibitory effect on cancer growth starting at the second week of treatment
- concentration at which plateau of maximal effect on Th-17 cells is reached [1]: above 0.1 μM
- number of naïve Th-17 cells ([1]; 0.01-0.3 μM): marked decrease
- IC50 [2]: 2300 nM
- Tmax (PK experiments in rat): 1 h
